Data published in US4992292A, “Tris-hydroxymethyl alkane dicarboxylate extended esters as low calorie fat mimetics” (Nabisco Brands, Inc., priority 1990, dated 1991).

Columns and labels:
[1] = in vivo animal feeding study for caloric availability; set-up: species or system Sprague-Dawley rats; conditions: rats, diet of 50% fort and 21% test compound, 14 days; from weight gain and corn oil base line data
Description: This example illustrates how the novel fat mimetics of this invention are screened for caloric availability by a carefully controlled in vivo animal feeding study.
An experimental relationship between total calories ingested and animal body weight gain is established by monitoring the body weight gain associated with consumption of a nutritionally balanced diet containing varying concentrations of a reference substance such as corn oil which has a known caloric availabilty. Correlations between total calories ingested and body weight gain are excellent (r=0.99).
Caloric availability of an unknown substance is evaluated by substituting a specific weight of the unknown substance for the reference substance and observing the body weight gain. The gain in body weight is equated to a total number of calories using the correlation previously established for the reference data. The estimated number of calories ingested are divided by the weight of unknown substance to give the apparent calories per gram for the unknown substance. Generally speaking, in these bioavailability studies, the degree of perianal pelt soiling correlates with reduced bioavailability.
The test animals are six-week-old male Sprague-Dawley rats obtained from the Portage, Michigan facility of the Charles River Laboratories, Inc. After acclimation for 15 days, the test duration is I4 days. […]

pancreatic lipase = conditions: cited from earlier work
[2] = rats fed ad libitum; cited from earlier work
[3] = rat, in vivo; cited from earlier work

## CCCCCCCC/C=C\CCCCCCCC(=O)OCC(C)(COC(=O)CCCCCCC/C=C\CCCCCCCC)COC(=O)CCCCCCC/C=C\CCCCCCCC [Example 1, 1,1,1-Tris hydroxymethylethane trioleate]
[1]
  caloric availability upon being metabolized: about 3.3 kcal/gram

## CCCCCCCC(=O)OCC(COC(=O)CCCCCCC)(COC(=O)CCCCCCC)COC(=O)CCCCCCC [pentaerythritol tetracaprylate]
Pancreatic lipase
  hydrolysis by the enzyme pancreatic lipase: not attacked, hydrolyzed
[2]
  food consumption versus control animals on a normal diet: consumed more than control animals

## corn oil
[3]
  caloric availability of reference: 9.0 calories/gram
